The results in this text go back to patent US10167293B2, “[8-(phenylsulfonyl)-3,8-diazabicyclo[3.2.1]oct-3-yl](1H-1,2,3-triazol-4-yl)methanones” (BAYER PHARMA AKTIENGESELLSCHAFT, priority 2016, dated 2019).

Structures are written as SMILES.

In the experiment the target is recombinant human AKR1C3 (Homo sapiens (Human), UniProt P42330). Nature of the experiment: AKR1C3-inhibitory activity assay (Coumberone to Coumberol fluorescence). It is filed as biochemical. The note with it: recombinant human AKR1C3, 15 min pre-incubation, 10 μM NADPH, 0.3 μM Coumberone. How it is done:
The AKR1C3-inhibitory activity of the substances of the present invention was measured in the AKR1C3 assay described in the paragraphs below.
Essentially, the enzyme activity is measured by quantification of the generation of Coumberol from Coumberone (Halim et al. J. AM. CHEM. SOC. 2008, 130:14123-14128 and Yee et al. Proc. Natl. Acad. Sci. USA 2006, 103:13304-13309). In this test, the increase of the highly fluorescent Coumberol by NADPH—(nicotinamide adenine dinucleotide phosphate)-dependent reduction of the non-fluorescent Coumberone by AKR1C3 was determined.
The enzyme used was recombinant human AKR1C3 (Aldo-keto reductase family 1 member C3; GenBank Accession No. NM_003739). This was expressed in E. coli as GST (glutathione S transferase) fusion protein and purified by glutathione Sepharose affinity chromatography. The GST was removed by digestion with thrombin and subsequent size exclusion chromatography (Dufort, I., Rheault, P., Huang, X F., Soucy, P., and Luu-The, V., Endocrinology 140, 568-574 (1999)).
For the assay, 50 nl of a 100-fold concentrated solution of the test substance in DMSO were pipetted into a black low-volume 384-well microtiter plate (Greiner Bio-One, Frickenhausen, Germany), 2.5 μl of a solution of AKR1C3 in assay buffer [50 mM potassium phosphate buffer pH 7, 1 mM DTT, 0.0022% (w/v) Pluronic F-127, 0.01% BSA (w/v) and protease inhibitor cocktail (Complete, EDTA-free Protease Inhibitor Cocktail from Roche)] were added and the mixture was incubated for 15 min to allow pre-binding of the substances to the enzyme prior to the enzyme reaction. The enzyme reaction was then started by addition of 2.5 μl of a solution of NADPH (20 μM→final concentration in 5 μl of assay volume is 10 μM) and Coumberone (0.6 μM→final concentration in 5 μl of assay volume is 0.3 μM) in assay buffer, and the resulting mixture was incubated at 22° C. for the reaction time of typically 90 min. The concentration of the AKR1C3 and the reaction time was adapted to the respective activity of the enzyme preparation and adjusted such that the assay was carried out in the linear range. Typical AKR1C3 concentrations were in the region of 1 nM. The reaction was stopped by addition of 2.5 μl of a stop solution consisting of 3 μM EM-1404 as inhibitor (U.S. Pat. No. 6,541,463) in 50 mM HEPES pH7.5 (3 μM EM-1404→final concentration in 7.5 μl of assay volume is 1 μM). The fluorescence of the Coumberole was then measured at 520 nm (excitation at 380 nm) using a suitable measuring instrument (Pherastar from BMG Labtechnologies). The intensity of the fluorescence was used as a measure of the amount of Coumberole formed and thus of the enzyme activity of AKR1C3. The data were normalized (enzyme reaction without inhibitor=0% inhibition; all other assay components, but no enzyme=100% inhibition).

Chain of recombinant human AKR1C3 (P42330 whole entry): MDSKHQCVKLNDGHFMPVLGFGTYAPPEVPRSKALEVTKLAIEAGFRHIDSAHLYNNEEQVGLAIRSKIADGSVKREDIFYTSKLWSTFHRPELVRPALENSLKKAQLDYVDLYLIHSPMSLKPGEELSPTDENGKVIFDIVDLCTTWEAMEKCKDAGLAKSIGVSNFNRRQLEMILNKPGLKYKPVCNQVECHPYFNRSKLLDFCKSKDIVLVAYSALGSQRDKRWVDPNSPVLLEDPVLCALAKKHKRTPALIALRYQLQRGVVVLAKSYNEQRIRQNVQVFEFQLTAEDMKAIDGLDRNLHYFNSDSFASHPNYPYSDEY

Consider `O=C(c1c[nH]nn1)N1CC2CCC(C1)N2S(=O)(=O)c1ccccc1` [Example 1, [8-(phenylsulfonyl)-3,8-diazabicyclo[3.2.1]oct-3-yl](1H-1,2,3-triazol-4-yl)methanone], for which the half-inhibitory concentration (IC50) was 3.7 nM.
With `O=C(c1c[nH]nn1)N1CC2CCC(C1)N2S(=O)(=O)c1ccccc1C(F)(F)F` [Example 2, 1H-1,2,3-triazol-4-yl[8-{[2-(trifluoromethyl)phenyl]sulfonyl}-3,8-diazabicyclo[3.2.1]oct-3-yl]methanone] the figure was 1 nM.
As for `O=C(c1cnn[nH]1)N1CC2CCC(C1)N2S(=O)(=O)c1cc(F)cc(F)c1` [Example 3, {8-[(3,5-difluorophenyl)sulfonyl]-3,8-diazabicyclo[3.2.1]oct-3-yl}(1H-1,2,3-triazol-5-yl)methanone], the figure is 1.4 nM.
As for `O=C(c1cnn[nH]1)N1CC2CCC(C1)N2S(=O)(=O)c1cccc(F)c1` [Example 4, {8-[(3-fluorophenyl)sulfonyl]-3,8-diazabicyclo[3.2.1]oct-3-yl}(1H-1,2,3-triazol-5-yl)methanone], the figure is 1.2 nM; as for `O=C(c1cnn[nH]1)N1CC2CCC(C1)N2S(=O)(=O)c1cccc(Cl)c1` [Example 5, {8-[(3-chlorophenyl)sulfonyl]-3,8-diazabicyclo[3.2.1]oct-3-yl}(1H-1,2,3-triazol-4-yl)methanone], 1.2 nM; as for `Cc1ccccc1S(=O)(=O)N1C2CCC1CN(C(=O)c1cnn[nH]1)C2` [Example 6, {8-[(2-methylphenyl)sulfonyl]-3,8-diazabicyclo[3.2.1]oct-3-yl}(1H-1,2,3-triazol-4-yl)methanone], 1.7 nM.
Take `O=C(c1c[nH]nn1)N1CC2CCC(C1)N2S(=O)(=O)c1cccc(S(F)(F)(F)(F)F)c1` [Example 8, [8-{[3-(pentafluoro-lambda^6-sulfanyl)phenyl]sulfonyl}-3,8-diazabicyclo[3.2.1]oct-3-yl](1H-1,2,3-triazol-4-yl)methanone]: the half-inhibitory concentration (IC50) was 1.3 nM.
As for `O=C(c1c[nH]nn1)N1CC2CCC(C1)N2S(=O)(=O)c1cc(Cl)cc(Cl)c1` [Example 9, {8-[(3,5-dichlorophenyl)sulfonyl]-3,8-diazabicyclo[3.2.1]oct-3-yl}(1H-1,2,3-triazol-4-yl)methanone], the half-inhibitory concentration (IC50) was 0.9 nM.
As for `O=C(c1c[nH]nn1)N1CC2CCC(C1)N2S(=O)(=O)c1cc(C(F)(F)F)cc(C(F)(F)F)c1` [Example 10], the figure is 7.3 nM; as for `O=C(c1c[nH]nn1)N1CC2CCC(C1)N2S(=O)(=O)c1ccc(Cl)s1` [Example 11, {8-[(5-chlorothiophen-2-yl)sulfonyl]-3,8-diazabicyclo[3.2.1]oct-3-yl}(1H-1,2,3-triazol-4-yl)methanone], 1.1 nM; as for `O=C(c1c[nH]nn1)N1CC2CCC(C1)N2S(=O)(=O)c1cc(F)ccc1F` [Example 12, {8-[(2,5-difluorophenyl)sulfonyl]-3,8-diazabicyclo[3.2.1]oct-3-yl}(1H-1,2,3-triazol-4-yl)methanone], 1.1 nM.
`Cc1cccc(S(=O)(=O)N2C3CCC2CN(C(=O)c2cnn[nH]2)C3)c1` [Example 13, {8-[(3-methylphenyl)sulfonyl]-3,8-diazabicyclo[3.2.1]oct-3-yl}(1H-1,2,3-triazol-5-yl)methanone]: the IC50 is 1.4 nM.
For `Cc1ccc(S(=O)(=O)N2C3CCC2CN(C(=O)c2cnn[nH]2)C3)cc1` [Example 14, {8-[(4-methylphenyl)sulfonyl]-3,8-diazabicyclo[3.2.1]oct-3-yl}(1H-1,2,3-triazol-5-yl)methanone], the half-inhibitory concentration (IC50) amounted to 1.9 nM.
As for `O=C(c1cnn[nH]1)N1CC2CCC(C1)N2S(=O)(=O)c1ccccc1F` [Example 15, {8-[(2-fluorophenyl)sulfonyl]-3,8-diazabicyclo[3.2.1]oct-3-yl}(1H-1,2,3-triazol-5-yl)methanone], the figure is 1.5 nM; as for `O=C(c1cnn[nH]1)N1CC2CCC(C1)N2S(=O)(=O)c1ccc(F)cc1` [Example 16, {8-[(4-fluorophenyl)sulfonyl]-3,8-diazabicyclo[3.2.1]oct-3-yl}(1H-1,2,3-triazol-5-yl)methanone], 2.2 nM.
With `N#Cc1cccc(S(=O)(=O)N2C3CCC2CN(C(=O)c2cnn[nH]2)C3)c1` [Example 17, 3-{[3-(1H-1,2,3-triazol-5-ylcarbonyl)-3,8-diazabicyclo[3.2.1]oct-8-yl]sulfonyl}benzonitrile] the figure was 2.9 nM; with `Cc1cc(C)cc(S(=O)(=O)N2C3CCC2CN(C(=O)c2cnn[nH]2)C3)c1` [Example 18, {8-[(3,5-dimethylphenyl)sulfonyl]-3,8-diazabicyclo[3.2.1]oct-3-yl}(1H-1,2,3-triazol-5-yl)methanone], 1 nM.
For the compound `Cc1ccc(C)c(S(=O)(=O)N2C3CCC2CN(C(=O)c2cnn[nH]2)C3)c1` [Example 19, {8-[(2,5-dimethylphenyl)sulfonyl]-3,8-diazabicyclo[3.2.1]oct-3-yl}(1H-1,2,3-triazol-5-yl)methanone], the IC50 came to 1.1 nM.
As for `COc1cccc(S(=O)(=O)N2C3CCC2CN(C(=O)c2cnn[nH]2)C3)c1` [Example 20, {8-[(3-methoxyphenyl)sulfonyl]-3,8-diazabicyclo[3.2.1]oct-3-yl}(1H-1,2,3-triazol-5-yl)methanone], the figure is 1 nM.
In the case of `COc1ccc(S(=O)(=O)N2C3CCC2CN(C(=O)c2cnn[nH]2)C3)cc1` [Example 21, {8-[(4-methoxyphenyl)sulfonyl]-3,8-diazabicyclo[3.2.1]oct-3-yl}(1H-1,2,3-triazol-5-yl)methanone], the IC50 came out at 2 nM.
On to `O=C(c1cnn[nH]1)N1CC2CCC(C1)N2S(=O)(=O)c1ccc(Cl)cc1` [Example 22, {8-[(4-chlorophenyl)sulfonyl]-3,8-diazabicyclo[3.2.1]oct-3-yl}(1H-1,2,3-triazol-5-yl)methanone], for which the IC50 came to 1.5 nM.
With `O=C(c1cnn[nH]1)N1CC2CCC(C1)N2S(=O)(=O)c1ccc(F)c(F)c1` [Example 23, {8-[(3,4-difluorophenyl)sulfonyl]-3,8-diazabicyclo[3.2.1]oct-3-yl}(1H-1,2,3-triazol-5-yl)methanone] the figure was 2.2 nM.
Regarding `O=C(c1cnn[nH]1)N1CC2CCC(C1)N2S(=O)(=O)c1c(F)cccc1F` [Example 24, {8-[(2,6-difluorophenyl)sulfonyl]-3,8-diazabicyclo[3.2.1]oct-3-yl}(1H-1,2,3-triazol-5-yl)methanone], the IC50 was found to be 1.8 nM.
As for `O=C(c1cnn[nH]1)N1CC2CCC(C1)N2S(=O)(=O)c1ccc(F)cc1F` [Example 25, {8-[(2,4-difluorophenyl)sulfonyl]-3,8-diazabicyclo[3.2.1]oct-3-yl}(1H-1,2,3-triazol-5-yl)methanone], the figure is 2.6 nM; as for `Cc1c(Cl)cccc1S(=O)(=O)N1C2CCC1CN(C(=O)c1cnn[nH]1)C2` [Example 26, {8-[(3-chloro-2-methylphenyl)sulfonyl]-3,8-diazabicyclo[3.2.1]oct-3-yl}(1H-1,2,3-triazol-5-yl)methanone], 1.1 nM.
Regarding `O=C(c1cnn[nH]1)N1CC2CCC(C1)N2S(=O)(=O)c1cccc(Cl)c1F` [Example 27, {8-[(3-chloro-2-fluorophenyl)sulfonyl]-3,8-diazabicyclo[3.2.1]oct-3-yl}(1H-1,2,3-triazol-5-yl)methanone], the IC50 worked out at 0.9 nM.
As for `O=C(c1cnn[nH]1)N1CC2CCC(C1)N2S(=O)(=O)c1ccc(F)c(Cl)c1` [Example 28, {8-[(3-chloro-4-fluorophenyl)sulfonyl]-3,8-diazabicyclo[3.2.1]oct-3-yl}(1H-1,2,3-triazol-5-yl)methanone], the figure is 1.2 nM.
`O=C(c1cnn[nH]1)N1CC2CCC(C1)N2S(=O)(=O)c1cccc(C(F)(F)F)c1` [Example 29, 1H-1,2,3-triazol-5-yl[8-{[3-(trifluoromethyl)phenyl]sulfonyl}-3,8-diazabicyclo[3.2.1]oct-3-yl]methanone]: the IC50 came out at 0.9 nM.
With `O=C(c1cnn[nH]1)N1CC2CCC(C1)N2S(=O)(=O)c1cc(Cl)ccc1Cl` [Example 30, {8-[(2,5-dichlorophenyl)sulfonyl]-3,8-diazabicyclo[3.2.1]oct-3-yl}(1H-1,2,3-triazol-5-yl)methanone] the figure was 0.6 nM.

One may read the IC50 as the point on the concentration scale where inhibition reaches its midpoint.
